Results: PubChem BioAssay AID256 (DTP/NCI, 2004)
“And” between values parts separate entries of the source, which are not always exact repeats. Identical values can stand only once. Toxic doses and inconclusive results are not listed.

System: CD2F1 mice, L1210 leukemia ip, survival T/C
Test: NCI In Vivo Anticancer Drug Screen. Data for tumor model L1210 Leukemia (intraperitoneal) in CD2F1 (CDF1) mice
Settings: higher = longer survival
How it was run: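 Tumor-bearing mice (transplanted tumor) were split into treated and vehicle control groups, and the measured endpoint of each treated group was divided by that of its vehicle controls.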

[1] = endpoint: mean survival time, dose: 100.0 mg/kg/injection, schedule: Q04DX002 (ip), vehicle: saline with Tween-80
[2] = endpoint: mean survival time, dose: 200.0 mg/kg/injection, schedule: Q04DX002 (ip), vehicle: saline with Tween-80
[3] = endpoint: mean survival time, dose: 100.0 mg/kg/injection, schedule: Q01DX009 (ip), vehicle: saline with Tween-80
[4] = endpoint: mean survival time, dose: 200.0 mg/kg/injection, schedule: Q01DX009 (ip), vehicle: saline with Tween-80
[5] = endpoint: mean survival time, dose: 400.0 mg/kg/injection, schedule: Q01DX009 (ip), vehicle: saline with Tween-80
[6] = endpoint: mean survival time, dose: 100.0 mg/kg/injection, schedule: Q04DX003 (ip), vehicle: saline with Tween-80
[7] = endpoint: mean survival time, dose: 200.0 mg/kg/injection, schedule: Q04DX003 (ip), vehicle: saline with Tween-80
[8] = endpoint: mean survival time, dose: 50.0 mg/kg/injection, schedule: Q01DX009 (ip), vehicle: saline with Tween-80

Compound: c1ccc2c(c1)ccc1c2c[n+](CCCCCCCC[n+]2cc3c4ccccc4ccc3c3ccccc32)c2ccccc12
- T/C (endpoint: mean survival time, dose: 1.56 mg/kg/injection, schedule: Q04DX003 (ip), vehicle: distilled water + Tween-80): 114 % of control
- T/C (endpoint: mean survival time, dose: 3.13 mg/kg/injection, schedule: Q04DX003 (ip), vehicle: distilled water + Tween-80): 124 % of control

Compound: NC(=S)c1ncn(C2OC(COC=O)C(OC=O)C2OC=O)c1NC=O (stereo not given)
- T/C (endpoint: mean survival time, dose: 50.0 mg/kg/injection, schedule: Q04DX002 (ip), vehicle: Klucel (hydroxypropylcellulose) (HPC)): 121 % of control
- T/C (endpoint: mean survival time, dose: 100.0 mg/kg/injection, schedule: Q01DX009 (ip), vehicle: Klucel (hydroxypropylcellulose) (HPC)): 151 % of control
- T/C [1]: 166 % of control
- T/C (endpoint: mean survival time, dose: 200.0 mg/kg/injection, schedule: Q01DX009 (ip), vehicle: Klucel (hydroxypropylcellulose) (HPC)): 117 % of control
- T/C [2]: 158 % of control
- T/C (endpoint: mean survival time, dose: 400.0 mg/kg/injection, schedule: Q04DX002 (ip), vehicle: Klucel (hydroxypropylcellulose) (HPC)): 159 % of control
- T/C (endpoint: mean survival time, dose: 400.0 mg/kg/injection, schedule: Q04DX002 (ip), vehicle: saline with Tween-80): 154 % of control
- T/C (endpoint: median survival time, dose: 12.5 mg/kg/injection, schedule: Q01DX009 (ip), vehicle: Klucel (hydroxypropylcellulose) (HPC)): 111 % of control
- T/C (endpoint: median survival time, dose: 25.0 mg/kg/injection, schedule: Q01DX009 (ip), vehicle: Klucel (hydroxypropylcellulose) (HPC)): 122 % of control
- T/C (endpoint: median survival time, dose: 200.0 mg/kg/injection, schedule: Q01DX009 (ip), vehicle: Klucel (hydroxypropylcellulose) (HPC)): 154 % of control and 166 % of control

Compound: O=C(CNC(=O)NCc1ccco1)NNC(=O)Nc1ccc(Cl)c([N+](=O)[O-])c1
- T/C [3]: 94 % of control
- T/C [4]: 87 % of control
- T/C [5]: 91 % of control

Compound: Cc1cccc(NC(=O)NCCBr)c1
- T/C [6]: 100 % of control
- T/C [7]: 88 % of control
- T/C (endpoint: mean survival time, dose: 400.0 mg/kg/injection, schedule: Q04DX003 (ip), vehicle: saline with Tween-80): 92 % of control

Compound: CNOCc1ccc(C(=O)NC(C)C)cc1
- T/C (endpoint: mean survival time, dose: 25.0 mg/kg/injection, schedule: Q01DX009 (ip), vehicle: other): 98 % of control
- T/C (endpoint: mean survival time, dose: 50.0 mg/kg/injection, schedule: Q01DX009 (ip), vehicle: other): 100 % of control
- T/C (endpoint: mean survival time, dose: 100.0 mg/kg/injection, schedule: Q01DX009 (ip), vehicle: other): 98 % of control
- T/C (endpoint: mean survival time, dose: 200.0 mg/kg/injection, schedule: Q01DX009 (ip), vehicle: other): 100 % of control
- T/C (endpoint: mean survival time, dose: 400.0 mg/kg/injection, schedule: Q01DX009 (ip), vehicle: other): 118 % of control

Compound: O=C(N/N=C\c1ccc(F)cc1)N/N=C/c1ccc(F)cc1
- T/C (endpoint: mean survival time, dose: 12.5 mg/kg/injection, schedule: Q01DX009 (ip), vehicle: saline with Tween-80): 93 % of control
- T/C (endpoint: mean survival time, dose: 25.0 mg/kg/injection, schedule: Q01DX009 (ip), vehicle: saline with Tween-80): 91 % of control
- T/C [8]: 91 % of control
- T/C [4]: 90 % of control
- T/C [5]: 90 % of control

Compound: COc1cc(C)n2nnnc2n1
- T/C (endpoint: mean survival time, dose: 100.0 mg/kg/injection, schedule: Q01DX001 (ip), vehicle: saline): 107 % of control

Compound: COc1cc2c(cc1O)CCCC=C2C1CCCCc2cc(O)c(OC)cc21 (stereo not given)
- T/C [8]: 96 % of control
- T/C [3]: 103 % of control
- T/C [4]: 96 % of control

Compound: O=C1C(CO)(CO)CCC1(CO)CO
- T/C (endpoint: mean survival time, dose: 100.0 mg/kg/injection, schedule: Q01DX009 (ip), vehicle: saline): 91 % of control
- T/C (endpoint: mean survival time, dose: 200.0 mg/kg/injection, schedule: Q01DX009 (ip), vehicle: saline): 93 % of control
- T/C (endpoint: mean survival time, dose: 400.0 mg/kg/injection, schedule: Q01DX009 (ip), vehicle: saline): 98 % of control

Compound: O=C(O)C1C2CCC(C2)C1C(=O)O (stereo not given)
- T/C (endpoint: mean survival time, dose: 25.0 mg/kg/injection, schedule: Q04DX002 (ip), vehicle: saline with Tween-80): 118 % of control
- T/C (endpoint: mean survival time, dose: 50.0 mg/kg/injection, schedule: Q04DX002 (ip), vehicle: saline with Tween-80): 100 % of control
- T/C (endpoint: mean survival time, dose: 100.0 mg/kg/injection, schedule: Q01DX001 (ip), vehicle: Klucel (hydroxypropylcellulose) (HPC)): 108 % of control
- T/C [1]: 89 % of control
- T/C [6]: 105 % of control
- T/C (endpoint: mean survival time, dose: 200.0 mg/kg/injection, schedule: Q01DX001 (ip), vehicle: Klucel (hydroxypropylcellulose) (HPC)): 98 % of control
- T/C [2]: 93 % of control
- T/C [7]: 102 % of control
- T/C (endpoint: mean survival time, dose: 400.0 mg/kg/injection, schedule: Q01DX001 (ip), vehicle: Klucel (hydroxypropylcellulose) (HPC)): 96 % of control

Compound: CCOC(=O)c1cc2c3n(c1=O)CCCC3C(c1ccccn1)OC2=O (stereo not given)
- T/C (endpoint: mean survival time, dose: 100.0 mg/kg/injection, schedule: Q04DX003 (ip), vehicle: saline): 100 % of control
- T/C (endpoint: mean survival time, dose: 200.0 mg/kg/injection, schedule: Q04DX003 (ip), vehicle: saline): 107 % of control
- T/C (endpoint: mean survival time, dose: 400.0 mg/kg/injection, schedule: Q04DX003 (ip), vehicle: saline): 102 % of control

Compound: NC(N)=N/C(N)=N\c1cnc([N+](=O)[O-])s1
- T/C (endpoint: mean survival time, dose: 75.0 mg/kg/injection, schedule: Q01DX001 (ip), vehicle: saline): 96 % of control
- T/C (endpoint: mean survival time, dose: 150.0 mg/kg/injection, schedule: Q01DX001 (ip), vehicle: saline): 101 % of control
- T/C (endpoint: mean survival time, dose: 300.0 mg/kg/injection, schedule: Q01DX001 (ip), vehicle: saline): 93 % of control
